Measurements as given in patent US20210236528A1, “COMPOSITION COMPRISING ISOMERS OF INOSITOL AND ITS USE” (SOCIETE DES PRODUITS NESTLE S.A., priority 2019, published 2021).

Experiments:
[1] = Urinary inositol isomers excretion by glucose tolerance status (UHPLC-MSMS), withdrawn women from study 2; type: in vivo, human; conditions: endogenous, spot urine
Experimental: (§1) Only withdrawn women from this study 2 were included in this sub-study. Women were from UK (N=46), NZ (N=89), SG (N=117). All the data (anthropometric and biochemical parameters) were collected and measured. Plasma and urine inositol isomers were measured using a new validated UHPLC-MSMS method. Study 2 was approved by different Institutional Review Boards and the study design published (Godfrey K M et al, Trials. 2017 Mar. 20; 18(1):131.). Subjects were classified as normoglycemic (NGT), impaired glucose tolerance (IGT), and type 2 diabetic mellitus (T2DM) based upon the results of fasting glucose and the oral glucose tolerance test (OGTT). Subjects with 2-hours glucose were levels <7.8 mmol/L were considered as normal glucose tolerant (NGT), while those with 2-hour glucose between 7.8-11.1 mmol/L were deemed as having impaired glucose tolerance (IGT). Individuals with fasting plasma glucose (IFG) level 5.6 mmol/L) were classified as having impaired fasting glucose. Both IFG and IGT subjects were grouped together. Subjects with 2-hours glucose >11.1 mmol/L were considered as having type 2 diabetic mellitus (T2DM). NGT group was further divided into 2 sub-groups named NGT with a “favorable” metabolic risk profile (abbreviated NGT_fav) and NGT with an “unfavorable” metabolic risk profile (abbreviated NGT_Unfav) to take into account the hyperinsulinemia affecting subjects in the NGT group. Inclusion criteria for NGT subjects with a favorable risk profile (NGT_fav) were the following ones: BMI<25 for Caucasian and <23 for Asian subjects; waist <80 cm; waist/hip ratio […]; HOMA2-IR<1.21. IGT/IFG and T2DM subjects were also grouped together into a dysglycemic group. In total, […] were reported: NGT_all; NGT_fav; NGT_unfav; IGT/IFG and; T2DM.
(§2) Blood samples were collected into EDTA-containing tubes and spot urine samples were collected and frozen at −80° C. until analysis. For inositol isomers determination, analysis was performed on an Accela UHPLC (Thermo Fisher Scientific Inc., Waltham, Mass., USA) coupled to a TSQ Vantage triple quadrupole (Thermo Fisher Scientific Inc., Waltham, Mass., USA) equipped with a heated electrospray ionization (HESI) source in negative mode. Chromatographic separation was achieved using gradient elution on an UHPLC Acquity BEH Amide (1.7 μm, 2.1 mm×150 mm) column and guard column (Vanguard BEH Amide 1.7 μm, 2.1 mm×10 mm; Waters Corporation, Milford, Mass., USA) at 30° C. at a flow rate of 400 μL/min. Mobile phase consisted of 90% acetonitrile-NH4OH 0.04% (eluent A) and 50% acetonitrile-NH4OH 0.04% (eluent B). Column temperature was kept at 30° C. The injection volumes were 3 μL and 5 μL for urine and plasma respectively. Plasma samples were thawed and briefly vortexed before transferring 100 μL of the sample into a 1.5 mL microtube. 50 μL of [2H6]-myo-inositol, then 500 μL of ACN containing 1% of formic acid were added for protein precipitation. The tubes were vortexed for 1 min and centrifuged at 10,000×g for 3 min. Supernatants were transferred into an SPE Ostro 96 well plate for phospholipid removal. Positive pressure (about 8 psi) was applied for elution and the filtrates were then evaporate to dryness in a vacuum centrifuge (45° C., 5 mbar, 6 h). Dry residues were dissolved in 400 μL of water and transferred into a 0.45 μm centrifugal filter containing 175 mg of mixed bed ion exchange resin Amberlite MB-3. Tubes were spun at 3000×g for 2 min then the filtrates were evaporated to dryness in vacuum centrifuge at 45° C., 5 mbar for 2 h. Finally, residues were reconstituted in vials with 80 μL of ACN/water (60/40) and injected for analysis.
Urine samples were thawed and briefly vortexed before transferring 150 μL of sample into a 1.5-mL microtube. 100 μL of [2H6]-myo-inositol was added and the mixture was transferred into a 0.45 μm centrifugal filter containing 175 mg of mixed bed ion exchange resin Amberlite MB-3. […]

[2] = Plasma inositol isomers levels by glucose tolerance status (UHPLC-MSMS), withdrawn women from study 2; type: in vivo, human; conditions: endogenous level; for Plasma inositol isomers levels, Mean: no administration; for plasma concentration in subjects with impaired glucose tolerance or type II diabetes in comparison to normal glucose tolerance / average plasma concentration in Asian subjects in comparison to Caucasian subjects: result in words; for average plasma concentration in Asian subjects in comparison to Caucasian subjects: subjects not having prediabetes or type II diabetes
Experimental: as §1, §2
Statistical analysis was performed using R software (version 3.2.3). Mean and standard deviation were calculated. The statistical model used as covariate the glucose tolerance status, the ethnicity, the menstrual cycle, the age of the subjects and the BMI. For some statistical analysis some raw data were log transformed in view of their distribution. […]

| Structure (SMILES) | Urinary inositol isomers excretion, Mean ([1]; IGT/IFG group) | Urinary inositol isomers excretion, Mean ([1]; NGT (all) group) | Urinary inositol isomers excretion, Mean ([1]; NGT_Fav group) | Urinary inositol isomers excretion, Mean ([1]; NGT_Unfav group) | Urinary inositol isomers excretion, Mean ([1]; T2DM group) | Plasma inositol isomers levels, Mean ([2]; IGT/IFG group, N=41 women) [µmol/L] | Plasma inositol isomers levels, Mean ([2]; NGT (all) group, N=182 women) [µmol/L] | Plasma inositol isomers levels, Mean ([2]; NGT_Fav group, N=63 women) [µmol/L] | Plasma inositol isomers levels, Mean ([2]; NGT_Unfav group, N=119 women) [µmol/L] | Plasma inositol isomers levels, Mean ([2]; T2DM group, N=26 women) [µmol/L] | plasma concentration in subjects with impaired glucose tolerance or type II diabetes in comparison to normal glucose tolerance [2] | average plasma concentration in Asian subjects in comparison to Caucasian subjects [2] |
| --- | --- | --- | --- | --- | --- | --- | --- | --- | --- | --- | --- | --- |
| OC1C(O)C(O)C(O)C(O)C1O (stereo not shown) [Chiro-inositol] | 0.20 μmol/mmol of creatinine | 0.24 μmol/mmol of creatinine | 0.26 μmol/mmol of creatinine | 0.22 μmol/mmol of creatinine | 0.42 μmol/mmol of creatinine | 0.32 | 0.23 | 0.26 | 0.22 | 0.22 | – | – |
| O[C@H]1[C@H](O)[C@@H](O)[C@H](O)[C@@H](O)[C@H]1O [Myo-inositol, cis-1,2,3,5-trans-4,6cyclohexanehexol] | 6.35 μmol/mmol of creatinine | 9.21 μmol/mmol of creatinine | 10.86 μmol/mmol of creatinine | 8.33 μmol/mmol of creatinine | 17.97 μmol/mmol of creatinine | 23.23 | 25.91 | 25.44 | 26.16 | 24.66 | lower | lower |
| O[C@H]1[C@H](O)[C@@H](O)[C@H](O)[C@@H](O)[C@@H]1O [Scyllo-inositol, (1r,2r,3r,4r,5r,6r)-Cyclohexane-1,2,3,4,5,6-hexol] | 3.31 μmol/mmol of creatinine | 5.04 μmol/mmol of creatinine | 6.34 μmol/mmol of creatinine | 4.34 μmol/mmol of creatinine | 3.36 μmol/mmol of creatinine | 0.46 | 0.67 | 0.72 | 0.64 | 0.37 | lower | lower |
